# Patent US20260374766A1, “METHODS FOR TREATING CANCER” (Antares Therapeutics, Inc., priority 2022, published 2026)
# Read-outs that look alike come from different tables or passages of the source.
# Key:
# [1] = biological target: T1, p53 Y220C mutant protein (amino acid residues 94-293) (Homo sapiens, UniProt P04637, Y220C); test: Surface Plasmon Resonance (SPR) assay, Kd_kinetic; format: binding; details: read-out: SPR P53 Y220C KD kinetic
# T1 construct: p53 Y220C mutant protein (amino acid residues 94-293)
# In short: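 Biacore 8K SPR; 16 or 20 °C; Tris 50 mM pH 7.5, NaCl 100 mM, DTT 1 mM, Brij35 0.01%, Tween-20 0.05%, DMSO 1%. Kd_kinetic by 1:1 fit.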
# [2] = biological target: T1, p53 Y220C mutant protein (amino acid residues 94-293); test: Thermal Shift Assay (TSA), dTM; format: binding; details: thermal shift; for ΔTm at 10 µM: 10 uM compound, read-out: TSA P53 Y220C dTM (10 uM); for ΔTm at 100 µM: 100 uM compound, read-out: TSA P53 Y220C dTM (100 uM)
# In short: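 Recombinant p53 Y220C core (residues 94-293) at 5 μM was incubated with 10 μM or 100 μM compound for 3 hours at 20 °C in 20 mM HEPES pH7.4, 100 mM NaCl, 0.01% Pluronic F-127, 1% DMSO with 400-fold diluted Sypro Orange. Melting was followed from 30 °C to 50 °C at 0.03 °C/second, and TM came from a Boltzmann two-state fit.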
# [3] = biological target: p53 Y220C (Homo sapiens, UniProt P04637, Y220C); test: Luciferase Reporter Assay (Luc), p53 response element, NClH1299 cells with inducible p53 Y220C; format: cell-based; details: luciferase reporter, NClH1299 inducible p53 Y220C, 6 hour; for Emax: 10 uM tool compound as positive control; for AC50: read-out: Luc P53 Y220C AC50
# In short: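 Luminescence readout (One-Glo, 5 min shaking at RT, read at once) after 6 h compound exposure; cells pre-induced 24 h with 0.5 ug/mL doxycycline, 5,000/well.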
# [4] = tested on: NUGC3 p53 Y220C; test: Cell Proliferation Assay (CellTiter-Glo, CTG), NUGC3 p53 Y220C; format: cell-based; details: Homo sapiens, NUGC-3, 120 h, CellTiter-Glo, NUGC3 p53 Y220C, 5 days
# In short: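 Tet-One inducible p53 Y220C or R273H constructs were stably introduced into NCI-H1299 by lentiviral transduction; NUGC3 was used as is. Cells (250-500 per well) were exposed to compound for 5 days, then CellTiter-Glo was added for 10 min at room temperature and IC50 was calculated from luminescence.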
# [5] = tested on: H1299 p53 Y220C; test: Cell Proliferation Assay (CellTiter-Glo, CTG), H1299 p53 Y220C (NClH1299-inducible p53 Y220C); format: cell-based; details: Homo sapiens, NCI-H1299, 120 h, CellTiter-Glo, H1299 p53 Y220C, 5 days
# In short: (§1)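 NClH1299 lines stably transduced with Tet-inducible p53 Y220C or R273H, plus NUGC3, were treated with compound for 5 days at 250-500 cells/well. IC50 derived from CellTiter-Glo luminescent signal after 10 min room-temperature incubation.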
# [6] = tested on: H1299 p53 R273H; test: Cell Proliferation Assay (CellTiter-Glo, CTG), H1299 p53 R273H (NClH1299-inducible p53 R273H); format: cell-based; details: Homo sapiens, NCI-H1299, 120 h, CellTiter-Glo, H1299 p53 R273H, 5 days
# In short: as §1
"Kd ([1]; SPR, kinetic KD, p53 Y220C) [nM]",ΔTm at 10 µM [2] [°C],ΔTm at 100 µM [2] [°C],Emax [3] [%],AC50 [3] [nM],IC50 [5] [nM],IC50 [6] [nM],Kd [1] [nM],SMILES,IC50 [4] [nM]
< 10,≥ 10,≥ 10,70 to 80,< 750,< 750,5000 to 8000,–,CNC(=O)c1ccc(NCC#Cc2nc3c(N[C@@H]4CN(C)CC[C@@H]4F)cccn3c2SC(F)(F)F)c(OC)c1 [Example 146],< 750
< 10,≥ 10,≥ 10,> 90,< 750,< 750,8000 to 10000,–,CNC(=O)c1ccc(NCC#Cc2nc3c(N[C@H]4CN(C)CC[C@@H]4F)cccn3c2SC(F)(F)F)c(OC)c1 [Example 147],< 750
< 10,≥ 10,≥ 10,70 to 80,< 750,< 750,≥ 10000,–,CNC(=O)c1cc(NCC#Cc2nc3c(N[C@@H]4CCN(C)C[C@@H]4F)cccn3c2SC(F)(F)F)c(OC)cn1 [Example 148],< 750
–,≥ 10,≥ 10,80 to 90,< 750,< 750,≥ 10000,< 10,CNC(=O)c1cccc(NCC#Cc2nc3c(N[C@@H]4CCN(C)C[C@@H]4F)cccn3c2SC(F)(F)F)c1 [Example 149],< 750
< 10,≥ 10,–,> 90,< 750,< 750,5000 to 8000,–,COc1cc2c(cc1NCC#Cc1nc3c(N[C@@H]4CCN(C)C[C@@H]4F)cccn3c1SC(F)(F)F)C(=O)NC2 [Example 151],< 750
< 10,≥ 10,≥ 10,70 to 80,< 750,< 750,≥ 10000,–,CNC(=O)c1ccc(OC)c(NCC#Cc2nc3c(N[C@@H]4CNC[C@@H]4F)cccn3c2SC(F)(F)F)c1 [Example 152],< 750
< 10,≥ 10,≥ 10,80 to 90,< 750,< 750,≥ 10000,–,CNC(=O)c1ccc(OC)c(NCC#Cc2nc3c(N[C@@H]4CN(C)C[C@@H]4F)cccn3c2SC(F)(F)F)c1 [Example 153],< 750
< 10,≥ 10,≥ 10,70 to 80,< 750,< 750,< 5000,–,"CNC(=O)c1ccc(OC)c(NCC#Cc2nc3c(N[C@@H]4CCN(C)C[C@@H]4F)cc(F)cn3c2SC(F)(F)F)c1 [Example 154, 3-{[3-(6-fluoro-8-{[(3S,4R)-3-fluoro-1-methylpiperidin-4-yl]amino}-3-[(trifluoromethyl)sulfanyl]imidazo[1,2-a]pyridin-2-yl)prop-2-yn-1-yl]amino}-4-methoxy-N-methylbenzamide]",< 750
–,≥ 10,≥ 10,> 90,< 750,< 750,8000 to 10000,< 10,"CNC(=O)c1ccc(NCC#Cc2cc3c(N[C@@H]4CCN(C)C[C@@H]4F)nccn3c2SC(F)(F)F)c(OC)c1 [Example 155, 4-{[3-(1-{[(3S,4R)-3-fluoro-1-methylpiperidin-4-yl]amino}-6-[(trifluoromethyl)sulfanyl]pyrrolo[1,2-a]pyrazin-7-yl)prop-2-yn-1-yl]amino}-3-methoxy-N-methylbenzamide; formic acid]",< 750
< 10,≥ 10,≥ 10,> 90,< 750,< 750,8000 to 10000,–,"CNC(=O)c1ccc(OC)c(NCC#Cc2cc3c(N[C@@H]4CCN(C)C[C@@H]4F)nccn3c2SC(F)(F)F)c1 [Example 156, 3-{[3-(1-{[(3S,4R)-3-fluoro-1-methylpiperidin-4-yl]amino}-6-[(trifluoromethyl)sulfanyl]pyrrolo[1,2-a]pyrazin-7-yl)prop-2-yn-1-yl]amino}-4-methoxy-N-methylbenzamide]",< 750
–,≥ 10,≥ 10,80 to 90,< 750,< 750,5000 to 8000,< 10,CNC(=O)c1ccc(OC)c(NCC#Cc2nc3c(N[C@@H]4CCN(C)C[C@@H]4F)cccn3c2SC(F)(F)F)n1 [Example 158],< 750
< 10,≥ 10,–,> 90,< 750,< 750,≥ 10000,–,CNC(=O)c1ccc(F)c(NCC#Cc2nc3c(N[C@@H]4CCN(C)C[C@@H]4F)cccn3c2SC(F)(F)F)c1 [Example 159],< 750
< 10,≥ 10,≥ 10,> 90,< 750,< 750,≥ 10000,–,CNC(=O)c1ccc(C)c(NCC#Cc2nc3c(N[C@@H]4CCN(C)C[C@@H]4F)cccn3c2SC(F)(F)F)c1 [Example 160],< 750
10 to 100,5 to 10,≥ 10,< 70,> 3000,1500 to 3000,≥ 10000,–,CNC(=O)c1cnc(NCC#Cc2nc3c(N[C@@H]4CCN(C)C[C@@H]4F)cccn3c2SC(F)(F)F)n1C [Example 161],1500 to 3000
< 10,≥ 10,≥ 10,80 to 90,< 750,< 750,≥ 10000,–,CNC(=O)c1cccc(NCC#Cc2nc3c(N[C@@H]4CCN(C)C[C@@H]4F)cccn3c2SC(F)(F)F)n1 [Example 162],< 750
< 10,≥ 10,≥ 10,> 90,< 750,< 750,≥ 10000,–,CNC(=O)c1ccc(NCC#Cc2nc3c(N[C@@H]4CCN(C)C[C@@H]4F)cccn3c2SC(F)(F)F)cc1 [Example 163],< 750
< 10,≥ 10,≥ 10,> 90,< 750,< 750,8000 to 10000,–,COc1cc(C(N)=O)ccc1NCC#Cc1nc2c(N[C@@H]3CCN(C)C[C@@H]3F)cccn2c1SC(F)(F)F [Example 165],< 750
< 10,≥ 10,≥ 10,80 to 90,< 750,< 750,≥ 10000,–,COc1ccc(C(N)=O)nc1NCC#Cc1nc2c(N[C@@H]3CCN(C)C[C@@H]3F)cccn2c1SC(F)(F)F [Example 166],< 750
< 10,≥ 10,≥ 10,80 to 90,< 750,< 750,< 5000,–,CNC(=O)c1ccc(OC)c(NCC#Cc2nc3c(N[C@@H]4CCN(C)C[C@@H]4F)cccn3c2SC(F)F)c1 [Example 167],< 750
< 10,≥ 10,5 to 10,> 90,750 to 1500,< 750,≥ 10000,–,CNC(=O)c1ccc(NCC#Cc2nc3c(N[C@H]4CCN(C)C(=O)C4)cccn3c2SC(F)(F)F)c(OC)c1 [Example 168],< 750
